Experimental data from patent US20020169123A1, “Regulating apoptosis in TRAIL-resistant cancer cells, while protecting normal, non-cancerous cells” (THE TRUSTEES OF THE UNIVERSITY OF PENNSYLVANIA, priority 2001, published 2002).

Experiments:
TE5 cells = assay: suppression of endogenous Bcl-xL by anti-sense morpholino, western blot and active-caspase 3 assay; type: cell-based, human
Protocol: Anti-sense Bcl-xL morpholino oligonucleotides (5′-[…]-3′) (SEQID NO:2) for suppressing expression of endogenous Bcl-xL in vivo, and fluorescein-labeled standard control oligonucleotides were purchased from Gene Tools, LLC (Corvallis, Oreg.). The scrape delivery method was used to deliver the oligonucleotides to the cells. Briefly, cells (1×10^6/well) were seeded into a 6-well culture plate, and after 16 hours of incubation, the medium was changed with 1 mL of fresh medium containing 20 μM morpholino oligonucleotides (chemically modified antisense oligonucleotides). Then, the cells were scraped out of the plates using a cell scraper (SARSTEDT, Newton, N.C.). After gently pipetting up and down twice, the cells were transferred to a new culture plate. After 48 hours of incubation, the cells were treated under the indicated conditions described in the corresponding figures for the example in which the cells were used. […] The effect is not seen in normal cells.
To confirm the effect of Bcl-xL on the synergistic cell killing, we introduced anti-sense Bcl-xL morpholino oligonucleotides (AS Bcl-xL) were introduced into TE5 cells. This was to determine the effect of suppression of the endogenous Bcl-xL in the TE5 cells. […]

[1] = test system: all cells, including cancer cells; assay: protection from the killing effect of TRAIL by caspase inhibitors; type: cell-based; settings: stated without experimental detail

Row | Substance | expression of endogenous Bcl-xL (TE5 cells; 20 μM morpholino oligonucleotide, scrape delivery, western blot) | cell death by adriamycin plus TRAIL when Bcl-xL is suppressed (TE5 cells; even in the presence of z-LEHD-FMK) | protection from the killing effect of TRAIL [1]
1 | AS Bcl-xL: Anti-sense Bcl-xL morpholino oligonucleotide 5'-CGGTTGCTCTGAGACATTTTTATA-3' (SEQID NO:2), from Gene Tools (all phosphorodiamidate morpholino (PMO)) | suppression of endogenous Bcl-xL was observed | underwent synergistic apoptotic cell death | –
2 | z-IETD-FMK | – | – | protect all cells, including cancer cells, from the killing effect of TRAIL
